# Source: patent publication US10800834B2, “HER-1, HER-3 and IGF-1R compositions and uses thereof” (OHIO STATE INNOVATION FOUNDATION, priority 2013, dated 2020)
# Entries after “also recorded” stand apart in the source; their conditions may differ.
# What was measured:
# [1] = tested on: Met-1 cells; experiment: FVB/n Met-1 transplantable breast tumor model; format: in vivo, mouse; settings: peptide mimics i.v. weekly; for tumor growth and development: vs untreated and irrelevant peptide
# Procedure: Antitumor effects of immunization with HER-1 peptide vaccines and chimeric peptides in Fvb/n breast cancer model The Fvb/n transplantable model of HER-family dependent breast cancer represents a good model for human breast cancer. The peptide vaccines were dissolved in water and emulsified in Montanide ISA 720 (1:1) and […] (N-acetylglucosamine-3yl-acetyl-1-alanyl-D-isoglutamine). Female wild-type FVB/n mice (Charles River Laboratories) at the age of 5 to 6 weeks were immunized three times at 3-week intervals with […], and 14 days after the third immunization, the mice were challenged s.c. with Met-1 cells (200,000 per mouse). Met-1 cells were derived from the PyMT-transgenic mouse model with FVB/n background. Tumor growth was monitored for up to 6 weeks after challenge. During immunization, blood was drawn biweekly and used in ELISA to monitor Ab titers. In the case of treatment with the chimeric peptides, the mice were simply challenged with Met-1 cells and treated weekly i.v. with […] for up to 6 weeks beginning at day 0. The mice were euthanized at the end of treatment and tumors extracted and weighed.
# Tumor tissues were formalin fixed, embedded in paraffin, and stained immunohistochemically for CD31 and Ki-67. The tissue blocks were cut into […], deparaffinized in xylol, and then rehydrated with different grades of alcohol. The rehydrated sections were then washed with distilled water and placed in a microwave oven for 15 minutes. The slides were then blocked and incubated for 40 minutes at 20° C. with primary Abs specific for Ki-67 and CD31.
# To evaluate the inhibitory effects of the peptide vaccines in vivo, the FVB/n transplantable mouse model was used in which Met-1 cells from FVB/n background were injected in the mammary fat pad of wild-type FVB/n mice after immunization with the chimeric MVF HER-1 peptides as shown in the immunization schedule (data not shown). Tumor development in this model is dependent on the HER family receptor overexpression. All mice were immunized at 5 to 6 weeks of age and received two boosters at 3-week intervals. As depicted in FIG. 5, the vaccine constructs were immunogenic in the mice, and all of the mice had relatively high titers of the Abs (greater than 40,000). Mice were challenged with Met-1 cells and monitored weekly for 6 weeks.
# To test the in vivo effects of the peptide mimics, the same FVB/n model was used as in the case of immunization, but in this experiment, wild-type mice were challenged with Met-1 cells and treated i.v. with the peptide mimics. […] In assessing how the peptide inhibitors exert their effects in vivo, the tumor sections were analyzed after treatment with the peptide mimics for blood vessel density and actively proliferating cells. […] The effect on proliferating cells was most evident in the case of treatment with the 382-410 and the 418-435 constructs (FIG. 7C).
# [2] = Immunization of transgenic mice with chimeric peptides (summary statement); format: in vivo, mouse; settings: immunization of transgenic mice with one or more of the chimeric peptides
# [3] = tested on: New Zealand white outbred rabbits; experiment: Immunogenicity of MVF HER-3 peptide constructs in rabbits (ELISA titers); format: in vivo, rabbit
# Procedure: Two female New Zealand white outbred rabbits (Harlan) were immunized intramuscularly with 1 mg of MVF HER-3 (237-269) or MVF HER-3 (461-479) peptide dissolved in 500 μL PBS and emulsified in 500 μL of Montanide ISA720 vehicle with 100 μg muramyl dipeptide adjuvant, nor-MDP (N-acetylglucosamine-3yl-acetyl-L-alanyl-D-isoglutamine). Subsequent booster injections were given every three weeks after primary immunization. Sera of rabbits immunized with either MVF peptide were collected weekly, and complement was inactivated by heating to 56° C. for 30 minutes. The titer of anti-HER-3 peptide antibodies were quantified by ELISA. The MVF HER-3 (237-269) and MVF HER-3 (461-479) peptides were highly immunogenic by three weeks after the third immunization. Antibody titers against MVF HER-3 (461-479) and MVF HER-3 (237-269) were ≥32,000 and ≥128,000, respectively (FIGS. 9 A & B). High antibody titers were also generated against B cell epitope constructs. HER-3 (461-479) and HER-3 (237-269) antibody titers were ≥16,000 and ≥128,000, respectively (Data not shown). Total IgG was purified from high-titered sera on a protein A/G column (Pierce, Rockford, Ill.) and eluted antibodies were concentrated and exchanged in PBS using 100 kDa cutoff centrifuge filter units (Millipore). Antibody concentrations were determined by Coomassie plus protein assay reagent kit (Pierce).
# [4] = tested on: BxPC3 cells; experiment: MTT inhibition assay with HER-3 peptide mimics, BxPC3; format: cell-based, human; settings: 72 hours, HRG stimulated
# Procedure: The HER-3 peptide mimics and peptide vaccine antibodies may provide anti-tumor activity by blocking dimerization or ligand binding of the HER-3 receptor. To test the ability of the chimeric peptides to elicit antitumor effects, HER-3 positive cells were examined in a MTT inhibition assay. The anti-proliferative effects of the peptide mimics were tested at various concentrations (FIG. 13). Taxol, an inhibitor of mitosis, was used as a positive control (data not shown). Cells were seeded in 96 well flat bottom plates at 1×10^4 cells/well in 100 μl growth media and allowed to adhere overnight at 37° C. Media was removed from the wells and replaced with HER3 peptides made up in 1% growth media. Plates were incubated for 1 hour at 37° C., and subsequently stimulated with either 50 ng/mL HRG. Plates were incubated an additional 72 hours at 37° C. before 25 μL of 5 mg/mL MTT was added to each well. Plates were incubated for 2 hours at 37° C., then 100 μL extraction buffer (20% SDA, 50% DMF, pH 4.7) was added. Plates were incubated overnight at 37° C. and read on an ELISA reader at 570 nm. Percent inhibition was calculated by the following equation: (untreated-treated)/untreated×100. Error bars represent SEM of three separate experiments. […] The HER-3 peptide mimics inhibited proliferation of BXPC3, MCF-7 and JIMT-1 cell lines in a dose-dependent manner. […]
# [5] = tested on: A549 lung cancer cells; experiment: BALB/c SCID transplantable lung tumor model; format: in vivo, mouse; design: dose or concentration left out as unconfirmed; settings: i.v. weekly, peptide mimics or cetuximab
# Procedure: […] Tumor growth was measured twice weekly using vernier calipers, and at the end of the experiment, the tumors were extracted and weighed.
# [6] = tested on: BxPC-3, MCF-7 and JIMT-1 cancer cells; experiment: MTT proliferation assay with IGF-1R peptide mimics; format: cell-based, human; settings: 25, 50, 100, 150 μg/ml, three days
# Procedure: The effects of treatment with the IGF-1R peptide mimics were evaluated as inhibitors on proliferation of human pancreatic (BxPC-3) and breast (MCF-7 and JIMT-1) cancer cells. Ligand binding to the IGF-1 receptor results in activation that causes increase proliferation of the receptor and intracellular signaling. Accordingly, the effects of the IGF-1R peptide mimics on ligand binding inhibition and inhibition of cancer cell line proliferation were determined. To measure proliferation, the MTT assay was used where the cells were treated with the inhibitors at different concentrations and incubated for three days before adding MTT.
# [7] = molecular target: T1, IGF-1R (Homo sapiens, UniProt P08069); experiment: Human-phospho-IGF-1R sandwich ELISA; format: cell-based; settings: MCF-7, JIMT-1 and BxPC-3 cells
# T1 construct: IGF-1 signaling in MCF-7, JIMT-1 and BxPC-3 cells were analyzed using protein lysates after treatment; endogenous in cells; host or cells: MCF-7, JIMT-1 (human breast cancer) and BxPC-3 (human pancreatic cancer) cells
# Procedure: The effects of chimeric peptides and antipeptide antibodies on IGF-1 signaling in MCF-7, JIMT-1 and BxPC-3 cells were analyzed using protein lysates after treatment and measurement of phosphorylated levels of the receptors in a sandwich ELISA method using Human-phospho-IGF-1R ELISA kit from R&D diagnostics. […] FIG. 22 A-C is treatment with peptide mimics and FIG. 22-D-F is treatment with peptide vaccine antibodies.
# [8] = tested on: BxPC-3 pancreatic and JIMT-1 breast cancer cells; experiment: SCID transplantable breast and pancreatic mouse model, IGF-1R peptides; format: in vivo; settings: 200 μg i.v. weekly for 7 weeks; P values <0.05
# Procedure: To test the in vivo effects of the chimeric peptides, a transplantable breast and pancreatic mouse model was used. BxPC-3 pancreatic and JIMT-1 breast cancer cells were injected subcutaneously into the flanks of SCID mice. After tumor challenge, the mice were treated intravenously with the IGF-1R peptide mimics starting at day zero (day of tumor challenge) and weekly for a total of 7 weeks. Tumor growth was monitored twice weekly and at the end of treatment, all mice were euthanized and the tumors extracted and weighed and the percentage tumor weight calculated.
# [9] = tested on: BXPC3 cells; experiment: BALB/c SCID transplantable mouse model, BXPC3, HER-3 peptide mimics; format: in vivo; settings: BXPC3, peptide mimics i.v. weekly
# Procedure: To test the in vivo effects of the peptide mimics, two transplantable mouse models were used. Mice 4-5 weeks old were challenged with either BXPC3 or JIMT-1 cells subcutaneously into the flank. After tumor challenge, mice were treated intravenously with the peptide mimics starting at day zero (day of tumor challenge) and weekly for a total of 8-9 treatments. Tumor growth was monitored twice weekly and at the end of treatment. All mice were euthanized and weighed. Tumors were also extracted and weighed. Results display tumor volume and % tumor weight (FIG. 16 A-D). Both peptide constructs had the ability to attenuate tumor growth in mice challenged with BXPC3 cells. […] As a result, only the HER-3 (461-479) peptide was used in JIMT-1 tumor model.
substance,measurement,setting,value
"KIEFMYPPPYLDNERSNGTI [irrelevant peptide, negative control peptide, reference compound]",tumor growth and development,[1],no inhibitory effects
MVF HER-3 (461-479): HER-3 (461-479) synthesized collinearly with modified MVF epitope (SEQ ID NO:12) and GPSL linker (KLLSLIKGVIVHRLEGVEGPSLERLDIKHNRPRRDCVAEGK),tumor growth after immunization,[2],significant delay of tumor growth
same,Antibody titers against MVF peptide,[3]; three weeks after the third immunization,"≥ 32,000"
"FVMLNYNTNSSHALRQLRLTQLTE (Ac-FVMLNYNTNSSHALRQLRLTQLTE-NH2; listed as Homo sapiens) [HER-3 (99-122), peptide mimic acetylated and amidated]",Percent inhibition of proliferation,[4],~80%
"LIQAWPENRTDLHAFENLEIIRGRTKQHG (Ac-LIQAWPENRTDLHAFENLEIIRGRTKQHG-NH2; listed as Homo sapiens) [HER-1 (382-410), peptide mimic acetylated and amidated]",delay in tumor onset,[1],approximately 2 weeks
same,microvascular density (CD31) in tumor sections,[1],significant reduction in microvascular density
same,percentage tumor weight,[1],greater inhibitory effects
same,proliferating cells (Ki-67) in tumor sections,[1],most evident
same,tumor growth and development,[1],decrease in tumor growth and development
same,tumor growth and development,[5],significantly delayed tumor growth and development
"ACPPNTYRFEGWRCVDRDF (Ac-ACPPNTYRFEGWRCVDRDF-NH2; cysteine pairing not given here; listed as Homo sapiens) [IGF-1R (234-252), peptide mimic acetylated and amidated]",inhibition of proliferation (MTT),[6],inhibition of all three cell lines which was dose dependent; also recorded: dose-dependent inhibition of proliferation
same,"phosphorylated IGF-1R, treatment with peptides",[7],able to downregulate the expression of phosphorylated IGF-1R
same,percentage tumor weight,[8],significantly decreased the percentage tumor weight
"ERLDIKHNRPRRDCVAEGK (Ac-ERLDIKHNRPRRDCVAEGK-NH2; listed as Homo sapiens) [HER-3 (461-479), peptide mimic acetylated and amidated]",antibody titers against B cell epitope constructs,"[3]; sera of rabbits immunized with MVF HER-3 peptides, data not shown","≥ 16,000"
same,% tumor weight,[9],significantly decreased the % tumor weight
same,tumor growth,[9],greater anti-tumor effects
"SLNITSLGLRSLKEISDG (Ac-SLNITSLGLRSLKEISDG-NH2; listed as Homo sapiens) [HER-1 (418-435), peptide mimic acetylated and amidated]",delay in tumor onset,[1],approximately 2 weeks
same,microvascular density (CD31) in tumor sections,[1],significant reduction in microvascular density
same,percentage tumor weight,[1],greater inhibitory effects
same,proliferating cells (Ki-67) in tumor sections,[1],most evident
same,tumor growth and development,[1],decrease in tumor growth and development
same,tumor growth and development,[5],significantly delayed tumor growth and development
"LLFRVAGLESLGDLFPNLTVIRGWKL (Ac-LLFRVAGLESLGDLFPNLTVIRGWKL-NH2; listed as Homo sapiens) [IGF-1R (56-81), peptide mimic acetylated and amidated]",inhibition of proliferation (MTT),[6],inhibition of all three cell lines which was dose dependent; also recorded: dose-dependent inhibition of proliferation
same,"phosphorylated IGF-1R, treatment with peptides",[7],able to downregulate the expression of phosphorylated IGF-1R
same,percentage tumor weight,[8],significantly decreased the percentage tumor weight
